Experiments:
[1] = test system: Jurkat cell adhesion to IL-1 stimulated endothelial cells (β1 integrins, α4 β1); assay: Jurkat-Endothelial Cell Adhesion Assay; assay type: cell-based, human; settings: Jurkat T cells on IL-1 stimulated HUVEC; no unit printed in the table (text gives IC50 and test concentrations in μM); read-out: IC50 for adhesion inhibition Jurk-EC
Method: Jurkat-Endothelial Cell Adhesion Assay […] This assay measured the adhesive interactions of a T-cell line, Jurkat, known to express high levels of α4 β1, to endothelial cell monolayers in the presence of representative test compounds of the present invention. The test compounds were added in increasing concentrations to T-cells and then the T-cell/compound mixture was added to IL-1 stimulated endothelial cell monolayers. The plates were incubated, washed and the percentage of attached cells was quantitated. […] Human umbilical vein endothelial cells (HUVEC) were purchased from Clonetics (San Diego, Calif.) at passage number 2. The cells were grown on 0.5% porcine skin gelatin pre-coated flasks (Sigma, St. Louis, Mo.) in EGM-UV media (Clonetics, San Diego, Calif.) supplemented with 10% fetal bovine serum. Cells were re-fed every 2-3 days, reaching confluence by day 4 to 6. […] The endothelial cells were not used following passage 7. The T-cell line Jurkat was obtained from American Type Culture Collection and cultured in RPMI media containing 10% fetal calf serum. […] Following this incubation, the monolayers were washed twice with PBS containing 1 mM calcium chloride and 1 mM magnesium chloride and the plates were read using a Millipore Cytofluor 2300 (Marlboro, Mass.). […] Monolayers were also fixed in 3% paraformaldehyde and evaluated microscopically to verify the adhesion. […]

[2] = test system: JY cell adhesion to TNF stimulated endothelial cells (β2 integrins); assay: JY-Endothelial Cell adhesion assay; assay type: cell-based, human; settings: JY B cells + PMA on rTNF-stimulated HUVEC; no unit printed in the table (text gives IC50 and test concentrations in μM); read-out: IC50 for adhesion inhibition JY-EC
Method: The JY-Endothelial Cell Assay
The following assay established the activity of the present compounds in inhibiting cell adhesion through β2 integrins in a representative in vitro system.
The human B cell line, JY, was cultured in RPMI media containing 10% fetal calf serum at 37° C., in a humidified CO2 atmosphere. Endothelial cells were grown to confluency in 96-well micro-titer assay plates, as in the Jurkat-EC assay. Before the assay, the endothelial cells were stimulated with 50 U/ml rTNF for 18-24 hours at 37° C. JY cells were loaded with the fluorescent dye indicator BCECF-AM as follows: JY cells were washed twice with HBSS and cells were resuspended in HBSS at 5×10^6 cells/ml; BCECF-AM (Molecular Probes), stock concentration=1 mg/ml in DMSO, was added to the JY cells to a final concentration of 2 μg/ml; cells were incubated in the dark at 37° C. for 30-45 minutes; washed twice with HBSS and used in the assay. […]
The assay plates were then typically incubated for 30 min at 37° C. and washed four times with PBS containing Mg^2+ and Ca^2+ (room temp). 100 μl of PBS containing Mg^2+ and Ca^2+ were added to each well and the fluorescence from the adherent BCECF-labelled cells was analyzed using a fluorescence plate reader. […]

| Substance | IC50 [1] [µM] | IC50 [2] [µM] |
| --- | --- | --- |
| (1-FCA)-Arg-Cys*-(β-Asp)-(ThioP)-Cys*-Ala-Ala-Asp-(OFm) [Compound 35] | 267 |  |
| (9-FAc)-Arg-Cys*-(β-Asp)-(ThioP)-Cys*-(Abu)-Lys [Compound 65] |  | 353 |
| (Ac)-Arg-Cys*-(β-Asp)-(ThioP)-Cys*-Ala-Asp-(OFm) [Compound 37] | 106 |  |
| (Fmoc)-Arg-Cys*-(β-Asp)-(ThioP)-Cys* [Compound 22] |  | 52 |
